# Data published in patent publication EP0333028A1, “1-Substituted 4-pentafluorophenoxypiperidines, a process for their preparation and their use as medicaments” (HOECHST-ROUSSEL PHARMACEUTICALS INCORPORATED, priority 1988, dated 1989).
# Legend:
# Type in all cases: in vivo
# [1] = system: male mice (Charles River, CD-1); assay: tetrabenazine induced ptosis assay (TBZ); settings: Mus musculus, ip, 50% inhibition of tetrabenazine-induced ptosis, read-out: Antidepressant Activity TBZ ED₅₀
# Experimental: The compounds of this invention are also useful as antidepressants by virtue of their ability to elicit an antidepressant response in mammals. […] In the tetrabenazine induced ptosis assay, male mice (Charles River, CD-1), weighing 20 to 39 g, are used in test groups of five animals. Test compounds are dissolved, or suspended with 1 drop of Tween-80, in distilled water and administered to the animals in volumes of 10 cc per kg of body weight. Tetrabenazine methanesulfonate (76.78% as the free base) is dissolved in distilled water and the concentration of the solution is adjusted so that the dose, administered intraperitoneally (i.p.) to the animals, is 40 mg of tetrabenazine base per kg of animal body weight. The test compound is administered intraperitoneally (i.p.) or perorally (p.o.) to the subject animals, and the tetrabenazine solution is administered 30 minutes or 60 minutes, respectively, thereafter. […] The subject animals are placed in individual plastic containers of the size 26.7 cm x 20.3 cm x 15.2 cm (10.1/2" x 8" x 6") thirty (i.p.) and sixty minutes (p.o.) after administration of the tetrabenazine solution, and one minute thereafter, the animals scored for ptosis on the following scale: [table] […] The results are discarded and the test is repeated, if the control score is determined to be less than 17. […]
# [2] = system: male mice (Charles River, CD-1); assay: supramaximal electroshock (SES) assay; settings: Mus musculus, ip, protection against extensor tonus after electroshock, read-out: Anticonvulsant Activity SES ED₅₀
# Experimental: (§1) The compounds of this invention are useful as anticonvulsants due to their anticonvulsant activity in mammals. Anticonvulsant activity is measured in male mice using the supramaximal electroshock (SES) assay described in Arch. Int. Pharmacodyn. 92, pp. 97-107, (1952) and the metrazol lethality assay (MTZ) described in J. Pharmacol. Exp. Ther., 81, 402 (1944).
# Groups of male mice (Charles River, CD-1) weighing 18 to 30 g are employed in the SES assay. Test compounds are dissolved in distilled water, or if insoluble, suspended in water containing one drop of a surfactant, such as Tween-80. Test compounds are generally administered intraperitoneally at a dose of 10 ml of solution, or suspension, per kg of animal body weight. The output terminals of an A.C. shocker, which delivers 206 volts rms for 300 msec, are placed across the animals' eyes, an electrode paste coating assuring contact of the terminals with the eyes. The test compound is administered and thereafter the subject animals are shocked.
# Protection is expressed as normalized percent inhibition relative to vehicle control. [formula] A time response is carried out using 6 animals per group. Animals are tested at 30, 60 and 120 minutes post drug. Additional time periods are tested if indicated by previous tests. A dose range determination is generally reserved for those compounds which inhibit convulsions by greater than about 45-55% at the screening dose employed at the time the test was performed. When the peak activity time has been determined, a dose response is initiated, using 10 animals per group at that time period.
# [3] = system: male mice (Charles River, CD-1); assay: Metrazol lethality assay (MTZ); settings: Mus musculus, po, protection against Metrazol lethality, read-out: Anticonvulsant Activity MTZ ED₅₀
# Experimental: as §1
# Groups of male mice (Charles River, CD-1), weighing 18 to 30 grams are employed in the Metrazol lethality assay. Test compounds are dissolved in distilled water or if insoluble, suspended in water, to which a surfactant, such as Tween-80 is added. The test compounds are administered orally, the administered dose being dissolved or suspended in 10 ml of solution or suspension per kg of animal body weight. Control aminals (2 mice/group) receive water or water and Tween-80, i.e., the vehicle for administration of the test compound. Metrazol (pentylenetetrazol) is dissolved in water (concentration 225 mg of Metrazol/10 ml of solution), and the solution is administered subcutaneously to groups of five animals each at one or more time intervals of 15, 30, 60, 90, or 120 minutes after administration of the test compound. The number of animal alive 15 minutes after treatment with Metrazol is determined and recorded. The following formula is employed to calculate the percent protection against Metrazol lethality. [formula]
# A dose range determination is performed by substantially the same procedure as the time response determination. In the dose range determination, five groups of 10 animals per group are employed. This determination is generally reserved for those compounds which protect against lethality by greater than 70% at the screening dose employed.
# [4] = system: spontaneous hypertensive rat; assay: antihypertensive activity, indirect tail cuff method (SHR); settings: 50 mg/kg p.o. for three days, measured on the third day, decrease in mean arterial blood pressure
# Experimental: In this procedure a group of five animals is treated orally for three days with the test compound in relation to a control group of the same number. The drop in blood pressure is measured on the third day following administration. […]
smiles,measurement,setting,value
"CN(C)CCC=C1c2ccccc2CCc2ccccc21 [Amitriptyline, reference compound]",ED50,[1],1.5 mg/kg
"CNC(=O)N1CCC(Oc2c(F)c(F)c(F)c(F)c2F)CC1 [Example 1, 1-[(N-Methylamino)carbonyl]-4-(2,3,4,5,6-pentafluorophenoxy)piperidine]",ED50,[1],11.3 mg/kg
same,ED50,[2],62.5 mg/kg
same,ED50,[3],35.9 mg/kg
"CN(C)C(=O)N1CCC(Oc2c(F)c(F)c(F)c(F)c2F)CC1 [Example 2, 1-[(N,N-Dimethylamino)carbonyl]-4-(2,3,4,5,6-pentafluorophenoxy)piperidine]",ED50,[2],50.2 mg/kg
same,ED50,[3],40.4 mg/kg
"CC(=O)N1CCC(Oc2c(F)c(F)c(F)c(F)c2F)CC1 [Example 6, 1-Acetyl-4-(2,3,4,5,6-pentafluorophenoxy)piperidine]",mm dec. in blood pressure at 50 mg/kg p.o.,[4],36 mm Hg
"NC(=O)N1CCC(Oc2c(F)c(F)c(F)c(F)c2F)CC1 [Example 7, 1-Aminocarbonyl-4-(2,3,4,5,6-pentafluorophenoxy)piperidine]",mm dec. in blood pressure at 50 mg/kg p.o.,[4],39 mm Hg
"N=C(N)NCCN1CCCCCCC1 [Guanethidine, reference compound]",mm dec. in blood pressure at 50 mg/kg p.o.,[4],20 mm Hg
"CCC1(c2ccccc2)C(=O)NC(=O)NC1=O [Phenobarbital, reference compound]",ED50,[2],8.4 mg/kg
same,ED50,[3],16.9 mg/kg
